Series [1] is described as follows: GI S9 stability - no PMSF. In kind it is in vitro ADME. The following applies: pH 7.4; human intestinal S9, PMSF-free; read-out: GIS9-HUMAN-NoPMSF T1/2. The method in brief:
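Compounds were incubated at 2 μM with PMSF-free intestinal S9 (1 mg/mL protein) in 100 mM PBS, pH 7.4, sampling at 6 time points over 120 min. Parent disappearance and formation of the nucleoside metabolite Reference Compound A were quantified by LC-MS (Q-Exactive) using analyte/internal standard peak area ratios.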

Series [2] relates to Respiratory syncytial virus recombinant with luciferase (RSV-Luc5) in Normal Human Bronchial Epithelial (NHBE) cells. Briefly: microbe, parasite or virus in culture. In kind it is cell-based.
Series [3] relates to Respiratory syncytial virus recombinant with luciferase (RSV-Luc5) in HEp-2 cells. Nature of the series: microbe, parasite or virus in culture. It is filed as cell-based. Particulars: human respiratory syncytial virus.
Series [4] in a line: GI S9 stability. It is filed as in vitro ADME. The following applies: human, s9, pH 7.4.
Series [5] can be described thus: physchem.
Where [6] appears, read: HEp-2, 72 h, read-out: RSV Hep2 EC50.

Like-named read-outs stand apart in the source and are kept apart here. A value given as a limit tells only on which side of the number the result lay.

As to `CC12CCC(C1)C(C)(C)C2OC(=O)OC[C@H]1O[C@@](C#N)(c2ccc3c(N)ncnn23)[C@H](O)[C@@H]1O` (mixture of isomers) [Compound 48, ((2R,3S,4R,5R)-5-(4-aminopyrrolo[2,1-f][1,2,4]triazin-7-yl)-5-cyano-3,4-dihydroxytetrahydrofuran-2-yl)methyl (1,3,3-trimethylbicyclo[2.2.1]heptan-2-yl) carbonate], the half-life at 2 µM in series [1] stood at 10.1 min. The EC50 in series [2] (72 h, read-out: RSV NHBE EC50) is 167 nM; in series [3] (setting [6]), 2350 nM.

Consider `CC(C)OC(=O)OC[C@H]1O[C@@](C#N)(c2ccc3c(N)ncnn23)[C@H](O)[C@@H]1O` [Compound 4, [(2R,3S,4R,5R)-5-(4-aminopyrrolo[2,1-f][1,2,4]triazin-7-yl)-5-cyano-3,4-dihydroay-tetrahydrofuran-2-yl]methyl isopropyl carbonate], for which the half-life at 2 µM came to 0.903 min in series [1] and 253 min in series [4]. In addition, the EC50 in series [2] (72 h, read-out: RSV NHBE EC50) was found to be 774 nM; in series [3] (setting [6]) it was 606 nM.

Take `CCOC(=O)OC[C@H]1O[C@@](C#N)(c2ccc3c(N)ncnn23)[C@H](O)[C@@H]1O` [Compound 6, ((2R,3S,4R,5R)-5-(4-aminopyrrolo[2,1-f][1,2,4]triazin-7-yl)-5-cyano-3,4-dihydroxytetrahydrofuran-2-yl)methyl ethyl carbonate]: the half-life at 2 µM came out at 4.08 min in series [1] and 713 min in series [4]. The EC50 was determined as 1010 nM in series [2] (72 h, read-out: RSV NHBE EC50) and 1120 nM in series [3] (setting [6]).

Consider `CC(C)(C)OC(=O)OC[C@H]1O[C@@](C#N)(c2ccc3c(N)ncnn23)[C@H](O)[C@@H]1O` [Compound 46, ((2R,3S,4R,5R)-5-(4-aminopyrrolo[2,1-f][1,2,4]triazin-7-yl)-5-cyano-3,4-dihydroxytetrahydrofuran-2-yl)methyl tert-butyl carbonate], for which the half-life at 2 µM in series [1] came to 145 min; in series [4], 439 min. The EC50 was determined as 1180 nM in series [2] (72 h, read-out: RSV NHBE EC50) and 2320 nM in series [3] (setting [6]).

On to `CC1(OC(=O)OC[C@H]2O[C@@](C#N)(c3ccc4c(N)ncnn34)[C@H](O)[C@@H]2O)CCCCC1` [Compound 47, ((2R,3S,4R,5R)-5-(4-aminopyrrolo[2,1-f][1,2,4]triazin-7-yl)-5-cyano-3,4-dihydroxytetrahydrofuran-2-yl)methyl (1-methylcyclohexyl) carbonate], for which the half-life at 2 µM in series [1] was found to be 151 min. Also, the EC50 in series [2] (72 h, read-out: RSV NHBE EC50) was determined as 1480 nM; in series [3] (setting [6]), 2330 nM.

Consider `CC(C)(OC(=O)OC[C@H]1O[C@@](C#N)(c2ccc3c(N)ncnn23)[C@H](O)[C@@H]1O)c1ccncc1` [Compound 49, ((2R,3S,4R,5R)-5-(4-aminopyrrolo[2,1-f][1,2,4]triazin-7-yl)-5-cyano-3,4-dihydroxytetrahydrofuran-2-yl)methyl (2-(pyridin-4-yl)propan-2-yl) carbonate], for which the half-life at 2 µM in series [1] was found to be 522 min. Moreover, the EC50 is 17700 nM in series [2] (72 h, read-out: RSV NHBE EC50) and greater than 50000 nM in series [3] (setting [6]).

`CC1(C)[C@@H]2CC[C@@]1(C)[C@@H](OC(=O)OC[C@H]1O[C@@](C#N)(c3ccc4c(N)ncnn34)[C@H](O)[C@@H]1O)C2` [Compound 51, ((2R,3S,4R,5R)-5-(4-aminopyrrolo[2,1-f][1,2,4]triazin-7-yl)-5-cyano-3,4-dihydroxytetrahydrofuran-2-yl)methyl ((1R,2S,4R)-1,7,7-trimethylbicyclo[2.2.1]heptan-2-yl) carbonate]: the half-life at 2 µM in series [1] came to 11 min. Moreover, the EC50 was 727 nM in series [2] (72 h, read-out: RSV NHBE EC50) and 2140 nM in series [3] (setting [6]).

As for `CC(C)C(=O)O[C@H]1[C@@H](OC(=O)C(C)C)[C@](C#N)(c2ccc3c(N)ncnn23)O[C@@H]1COC(=O)OC(C)(C)C` [Compound 58, (2R,3R,4R,5R)-2-(4-aminopyrrolo[2,1-f][1,2,4]triazin-7-yl)-5-(((tert-butoxycarbonyl)oxy)methyl)-2-cyanotetrahydrofuran-3,4-diyl bis(2-methylpropanoate)], the half-life at 2 µM in series [1] amounted to 1.19 min. Also, the EC50 in series [2] (72 h, read-out: RSV NHBE EC50) is 1070 nM; in series [3] (setting [6]), 1360 nM.

`CC(C)OC(=O)OC[C@H]1O[C@@](C#N)(c2ccc3c(N)ncnn23)[C@H](OC(=O)C(C)C)[C@@H]1OC(=O)C(C)C` [Compound 59, (2R,3R,4R,5R)-2-(4-aminopyrrolo[2,1-f][1,2,4]triazin-7-yl)-2-cyano-5-(((isopropoxycarbonyl)oxy)methyl)tetrahydrofuran-3,4-diyl bis(2-methylpropanoate)]: the half-life at 2 µM in series [1] was found to be 0.869 min; in series [4], 1.44 min. The EC50 in series [2] (72 h, read-out: RSV NHBE EC50) is 811 nM; in series [3] (setting [6]), 786 nM.

With `CC(=O)O[C@H]1[C@@H](OC(C)=O)[C@](C#N)(c2ccc3c(N)ncnn23)O[C@@H]1COC(=O)OC(C)C` [Compound 65, (2R,3R,4R,5R)-2-(4-aminopyrrolo[2,1-f][1,2,4]triazin-7-yl)-2-cyano-5-(((isopropoxycarbonyl)oxy)methyl)tetrahydrofuran-3,4-diyl diacetate], the half-life at 2 µM in series [1] stood at 0.621 min. In addition, the EC50 in series [2] (72 h, read-out: RSV NHBE EC50) is 185 nM; in series [3] (setting [6]), 1080 nM.

Consider `COC(=O)OC[C@H]1O[C@@](C#N)(c2ccc3c(N)ncnn23)[C@H](OC(C)=O)[C@@H]1OC(C)=O` [Compound 128, (2R,3R,4R,5R)-2-(4-aminopyrrolo[2,1-f][1,2,4]triazin-7-yl)-2-cyano-5-(((methoxycarbonyl)oxy)methyl)tetrahydrofuran-3,4-diyl diacetate], for which the half-life at 2 µM in series [1] is 0.59 min. Also, the EC50 in series [2] (72 h, read-out: RSV NHBE EC50) came to 2040 nM.

For `CCOC(=O)OC[C@H]1O[C@@](C#N)(c2ccc3c(N)ncnn23)[C@H](OC(C)=O)[C@@H]1OC(C)=O` [Compound 129, (2R,3R,4R,5R)-2-(4-aminopyrrolo[2,1-f][1,2,4]triazin-7-yl)-2-cyano-5-(((ethoxycarbonyl)oxy)methyl)tetrahydrofuran-3,4-diyl diacetate], in series [1], the half-life at 2 µM came out at 0.623 min. In addition, the EC50 in series [2] (72 h, read-out: RSV NHBE EC50) was found to be 673 nM.

On to `CC(C)OC(=O)Nc1ncnn2c([C@]3(C#N)O[C@H](COC(=O)OC(C)C)[C@@H](O)[C@H]3O)ccc12` [Compound 137, isopropyl (7-((2R,3R,4S,5R)-2-cyano-3,4-dihydroxy-5-(((isopropoxycarbonyl)oxy)methyl)tetrahydrofuran-2-yl)pyrrolo[2, i-f][1,2,4]triazin-4-yl)carbamate], for which the half-life at 2 µM in series [1] was 8.05 min. In series [5], this molecule had a logD of 2. Also, the half-maximal effective concentration (EC50) was 9520 nM in series [2] (read-out: EC50 RSVFluc-NHBE 384 V2) and greater than 50000 nM in series [3] (HEp-2, read-out: EC50 RSVFluc-Hep2 384 V2).
